Legend:
Type in all cases: biochemical
Btk = target: T1, Btk (Homo sapiens, UniProt Q06187); experiment: Z'-Lyte FRET kinase assay (Invitrogen), Btk; settings: read-out: IC50, activity toward kinase Btk
T1 construct: purchased Invitrogen (assay run by Invitrogen)

Ret = target: T2, Ret (Homo sapiens, UniProt P07949); experiment: AlphaScreen kinase assay, Ret; settings: read-out: IC50, activity toward kinase Ret
T2 construct: P1378.pET-SF BI-PTP RET H661-R1012 HIS; made in house
T2 sequence (P07949 with tags, fused parts or gaps): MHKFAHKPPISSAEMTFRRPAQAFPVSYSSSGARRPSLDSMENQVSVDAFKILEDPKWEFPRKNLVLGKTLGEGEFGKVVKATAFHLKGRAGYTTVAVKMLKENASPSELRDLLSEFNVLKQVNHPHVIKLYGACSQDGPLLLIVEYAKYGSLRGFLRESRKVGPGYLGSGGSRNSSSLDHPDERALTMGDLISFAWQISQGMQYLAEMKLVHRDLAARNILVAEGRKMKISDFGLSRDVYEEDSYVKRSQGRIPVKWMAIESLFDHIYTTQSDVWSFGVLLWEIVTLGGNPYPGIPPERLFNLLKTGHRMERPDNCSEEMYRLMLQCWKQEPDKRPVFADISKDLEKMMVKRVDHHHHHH

Fms = target: T3, Fms (Homo sapiens, UniProt P07333); experiment: AlphaScreen kinase assay, Fms; settings: read-out: IC50, activity toward kinase Fms
T3 construct: purchased Upstate Biotechnology

FGFR1 = target: T4, FGFR1 (Homo sapiens, UniProt P11362, C488A/C584S); experiment: AlphaScreen kinase assay, FGFR1; settings: read-out: IC50, activity toward kinase FGFR
T4 construct: P1351.pET N6 BI-PTP FGFR A458-E765-X C488A, C584S; made in house; host or cells: E. coli (PTP1B co-expressed)

EphB2 = target: T5, EphB2 (Homo sapiens, UniProt P29323); experiment: Z'-Lyte FRET kinase assay (Invitrogen), EphB2; settings: read-out: IC50, activity toward kinase EphB2
T5 construct: purchased Invitrogen (assay run by Invitrogen)
T5 sequence (P29323 19-1055): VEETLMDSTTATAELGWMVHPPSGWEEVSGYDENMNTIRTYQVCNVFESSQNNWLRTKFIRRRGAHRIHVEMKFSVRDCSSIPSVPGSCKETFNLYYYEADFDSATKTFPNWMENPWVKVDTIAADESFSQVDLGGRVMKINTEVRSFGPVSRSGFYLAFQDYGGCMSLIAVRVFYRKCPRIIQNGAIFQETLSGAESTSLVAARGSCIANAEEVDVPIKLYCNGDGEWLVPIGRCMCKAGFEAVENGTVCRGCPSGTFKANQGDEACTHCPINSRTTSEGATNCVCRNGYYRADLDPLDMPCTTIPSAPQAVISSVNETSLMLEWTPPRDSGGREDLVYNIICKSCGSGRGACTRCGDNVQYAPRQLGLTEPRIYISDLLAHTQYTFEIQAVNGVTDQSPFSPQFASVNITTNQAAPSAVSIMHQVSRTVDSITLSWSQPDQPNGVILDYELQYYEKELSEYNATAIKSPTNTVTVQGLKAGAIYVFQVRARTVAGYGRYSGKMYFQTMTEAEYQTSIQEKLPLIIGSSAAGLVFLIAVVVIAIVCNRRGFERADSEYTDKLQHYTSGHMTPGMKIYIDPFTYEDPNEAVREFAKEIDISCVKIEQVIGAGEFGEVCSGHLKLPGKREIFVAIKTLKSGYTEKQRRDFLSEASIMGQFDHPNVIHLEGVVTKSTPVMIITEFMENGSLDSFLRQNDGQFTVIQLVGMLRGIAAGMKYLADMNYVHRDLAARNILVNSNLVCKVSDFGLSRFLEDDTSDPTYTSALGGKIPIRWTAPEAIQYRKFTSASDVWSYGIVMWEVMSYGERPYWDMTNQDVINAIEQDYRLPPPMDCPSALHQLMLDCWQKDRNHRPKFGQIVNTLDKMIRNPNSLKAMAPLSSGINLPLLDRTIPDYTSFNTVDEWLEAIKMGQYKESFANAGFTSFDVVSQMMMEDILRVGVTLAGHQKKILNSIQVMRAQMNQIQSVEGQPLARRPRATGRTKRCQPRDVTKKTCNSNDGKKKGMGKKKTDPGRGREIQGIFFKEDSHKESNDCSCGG
Summary of the method: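 Inhibition was inferred from protease cleavage of non-phosphorylated peptide, measured as a coumarin/fluorescein ratio. Kinase reactions used 10 μM ATP for 1 h at room temperature.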

B-Raf = target: T6, B-Raf (Homo sapiens, UniProt P15056); experiment: AlphaScreen kinase assay, B-Raf; settings: read-out: IC50, activity toward kinase B-Raf
T6 construct: purchased Upstate Biotechnology

Measured: IC50

T3 sequence (P07333 20-972): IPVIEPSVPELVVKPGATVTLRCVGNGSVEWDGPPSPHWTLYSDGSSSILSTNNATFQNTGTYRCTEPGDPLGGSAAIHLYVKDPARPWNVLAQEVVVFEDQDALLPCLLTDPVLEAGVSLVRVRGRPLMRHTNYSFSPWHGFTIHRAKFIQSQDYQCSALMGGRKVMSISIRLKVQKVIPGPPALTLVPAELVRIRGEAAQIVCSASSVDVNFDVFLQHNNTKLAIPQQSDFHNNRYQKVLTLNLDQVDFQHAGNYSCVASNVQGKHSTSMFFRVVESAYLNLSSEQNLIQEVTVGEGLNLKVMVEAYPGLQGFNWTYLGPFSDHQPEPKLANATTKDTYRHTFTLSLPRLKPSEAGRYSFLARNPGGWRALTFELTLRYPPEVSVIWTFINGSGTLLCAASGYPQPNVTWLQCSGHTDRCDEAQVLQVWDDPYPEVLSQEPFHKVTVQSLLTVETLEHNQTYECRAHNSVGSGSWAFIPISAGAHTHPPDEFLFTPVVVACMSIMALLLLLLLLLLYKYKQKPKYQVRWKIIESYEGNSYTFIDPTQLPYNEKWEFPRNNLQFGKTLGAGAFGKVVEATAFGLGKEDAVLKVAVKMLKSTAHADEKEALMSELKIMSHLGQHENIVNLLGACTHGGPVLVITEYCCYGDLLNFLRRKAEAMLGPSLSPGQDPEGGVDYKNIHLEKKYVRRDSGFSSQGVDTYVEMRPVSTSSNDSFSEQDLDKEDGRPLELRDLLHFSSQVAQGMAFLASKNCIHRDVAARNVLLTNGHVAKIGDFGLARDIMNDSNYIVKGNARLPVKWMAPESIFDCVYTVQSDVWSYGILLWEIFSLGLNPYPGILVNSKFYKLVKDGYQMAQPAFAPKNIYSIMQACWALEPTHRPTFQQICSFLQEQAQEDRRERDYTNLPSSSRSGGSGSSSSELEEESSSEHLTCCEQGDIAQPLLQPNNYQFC
T6 sequence (P15056 whole entry): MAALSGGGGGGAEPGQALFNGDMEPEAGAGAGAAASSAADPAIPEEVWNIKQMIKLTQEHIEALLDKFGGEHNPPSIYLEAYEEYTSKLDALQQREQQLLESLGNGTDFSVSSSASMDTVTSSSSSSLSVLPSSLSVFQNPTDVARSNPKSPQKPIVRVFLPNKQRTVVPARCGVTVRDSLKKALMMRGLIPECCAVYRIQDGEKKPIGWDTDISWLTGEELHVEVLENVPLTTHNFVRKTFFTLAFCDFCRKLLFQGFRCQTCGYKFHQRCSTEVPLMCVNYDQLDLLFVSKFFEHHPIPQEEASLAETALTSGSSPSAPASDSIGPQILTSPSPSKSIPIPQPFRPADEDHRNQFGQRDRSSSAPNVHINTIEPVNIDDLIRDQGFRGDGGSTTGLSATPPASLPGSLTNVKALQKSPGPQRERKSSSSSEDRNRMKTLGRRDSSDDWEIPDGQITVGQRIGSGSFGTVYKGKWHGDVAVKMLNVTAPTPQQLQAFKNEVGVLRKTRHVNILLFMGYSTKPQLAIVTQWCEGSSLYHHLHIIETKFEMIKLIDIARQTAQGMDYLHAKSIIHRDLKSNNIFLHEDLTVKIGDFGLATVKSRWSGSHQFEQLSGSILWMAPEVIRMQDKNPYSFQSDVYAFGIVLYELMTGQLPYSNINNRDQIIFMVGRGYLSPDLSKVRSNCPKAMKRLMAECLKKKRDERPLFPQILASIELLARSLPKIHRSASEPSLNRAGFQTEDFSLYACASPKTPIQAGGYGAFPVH
T1 sequence (Q06187 whole entry): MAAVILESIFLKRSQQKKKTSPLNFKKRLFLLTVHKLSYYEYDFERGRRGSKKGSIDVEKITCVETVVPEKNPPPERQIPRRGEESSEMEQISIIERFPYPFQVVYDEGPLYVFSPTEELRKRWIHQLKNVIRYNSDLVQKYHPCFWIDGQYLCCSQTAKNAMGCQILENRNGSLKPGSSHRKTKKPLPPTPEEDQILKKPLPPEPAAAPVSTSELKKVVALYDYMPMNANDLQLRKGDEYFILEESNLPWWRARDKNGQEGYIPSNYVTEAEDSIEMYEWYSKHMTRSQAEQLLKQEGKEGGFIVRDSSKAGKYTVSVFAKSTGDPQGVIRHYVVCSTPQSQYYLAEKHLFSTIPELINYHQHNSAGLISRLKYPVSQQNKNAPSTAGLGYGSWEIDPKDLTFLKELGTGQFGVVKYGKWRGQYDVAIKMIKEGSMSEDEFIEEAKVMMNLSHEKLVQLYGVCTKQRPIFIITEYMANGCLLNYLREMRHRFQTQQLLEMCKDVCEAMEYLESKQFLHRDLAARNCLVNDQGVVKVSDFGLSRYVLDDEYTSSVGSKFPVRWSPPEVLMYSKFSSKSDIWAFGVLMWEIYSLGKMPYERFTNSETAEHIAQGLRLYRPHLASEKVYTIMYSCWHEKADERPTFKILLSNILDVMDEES
T4 sequence (P11362 458-765 C488A/C584S): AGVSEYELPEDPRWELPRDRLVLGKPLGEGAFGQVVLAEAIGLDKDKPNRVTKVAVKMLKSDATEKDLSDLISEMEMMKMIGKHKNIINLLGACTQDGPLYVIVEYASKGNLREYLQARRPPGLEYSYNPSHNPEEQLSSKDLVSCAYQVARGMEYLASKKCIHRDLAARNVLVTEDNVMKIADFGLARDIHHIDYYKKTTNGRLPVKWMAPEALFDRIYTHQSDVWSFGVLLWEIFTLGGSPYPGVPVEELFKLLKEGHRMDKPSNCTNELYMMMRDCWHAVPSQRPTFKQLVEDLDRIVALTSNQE

CS(=O)(=O)c1cccc(-c2cnc3[nH]cc(C(O)c4c(F)ccc(F)c4F)c3c2)c1 (stereo not shown) [Compound P-0020]
not listed: B-Raf
≤ 10 µM: all other assays above

Cc1c(O)cccc1C(=O)c1c[nH]c2ncc(Br)cc12 [Compound P-0055, (5-Bromo-1H-pyrrolo[2,3-b]pyridin-3-yl)-(3-hydroxy-2-methyl-phenyl)-methanone]
not listed: Fms
≤ 10 µM: all other assays above

Oc1cccc(Cc2c[nH]c3ncc(-c4cccs4)cc23)c1F [Compound P-0052, 2-Fluoro-3-(5-thiophen-2-yl-1H-pyrrolo[2,3-b]pyridin-3-ylmethyl)-phenol]
not listed: Fms
≤ 10 µM: all other assays above

O=C(O)/C=C/c1cccc(-c2cnc3[nH]cc(C(=O)c4ccccc4F)c3c2)c1 [Compound P-0033]
not listed: B-Raf
≤ 10 µM: all other assays above

CS(=O)(=O)c1cccc(-c2cnc3[nH]cc(C(=O)c4c(F)ccc(F)c4F)c3c2)c1 [Compound P-0102, [5-(3-Methanesulfonyl-phenyl)-1H-pyrrolo[2,3-b]pyridin-3-yl]-(2,3,6-trifluoro-phenyl)-methanone]
≤ 10 µM: all assays above

Cn1cc(C(F)(F)F)c(-c2ccc(S(=O)(=O)NCc3c[nH]c4ncccc34)s2)n1 [Compound P-0041]
not listed: Fms
≤ 10 µM: all other assays above

COc1ccc(F)c(C(=O)c2c[nH]c3ncc(-c4cccnc4)cc23)c1 [Compound P-0090]
≤ 10 µM: all assays above

O=C(O)/C=C/c1cccc(-c2cnc3[nH]cc(C(=O)c4cc(O)ccc4F)c3c2)c1 [Compound P-0010]
≤ 10 µM: all assays above

O=C(c1cc(O)ccc1F)c1c[nH]c2ncc(-c3ccccc3)cc12 [Compound P-0045]
≤ 10 µM: all assays above

CCCS(=O)(=O)Nc1ccc(F)c(C(=O)c2c[nH]c3ncc(-c4cccnc4)cc23)c1F [Compound P-0088, Propane-1-sulfonic acid [2,4-difluoro-3-(5-pyridin-3-yl-1H-pyrrolo[2,3-b]pyridine-3-carbonyl)-phenyl]-amide]
≤ 10 µM: all assays above

O=C(c1cccc(O)c1)c1c[nH]c2ncc(Br)cc12 [Compound P-0019]
≤ 10 µM: all assays above

O=C(c1cc(O)ccc1F)c1c[nH]c2ncccc12 [Compound P-0005]
≤ 10 µM: all assays above

Cc1ccc(S(=O)(=O)NCc2c[nH]c3nccc(-c4cccc(C#N)c4)c23)cc1 [Compound P-0072]
not listed: B-Raf
≤ 10 µM: all other assays above

Cc1c(O)cccc1C(=O)c1c[nH]c2ncc(-c3ccccc3)cc12 [Compound P-0016, (3-Hydroxy-2-methyl-phenyl)-(5-phenyl-1H-pyrrolo[2,3b]pyridin-3-yl)-methanone]
≤ 10 µM: all assays above

O=C(c1cccc(O)c1)c1c[nH]c2nccc(Cl)c12 [Compound P-0012]
not listed: B-Raf
≤ 10 µM: all other assays above

Cc1c(O)cccc1C(=O)c1c[nH]c2ncc(-c3cccnc3)cc12 [Compound P-0006, (3-Hydroxy-2-methyl-phenyl)-(5-pyridin-3-yl-1H-pyrrolo[2,3b]pyridin-3-yl)-methanone]
≤ 10 µM: all assays above

O=C(c1cccc(O)c1)c1c[nH]c2ncc(Nc3ccccc3)cc12 [Compound P-0025]
≤ 10 µM: all assays above

O=C(c1cccc(O)c1F)c1c[nH]c2ncc(-c3cccnc3)cc12 [Compound P-0027, (2-Fluoro-3-hydroxy-phenyl)-(5-pyridin-3-yl-1H-pyrrolo[2,3-b]pyridin-3-yl)-methanone]
≤ 10 µM: all assays above

Oc1ccc(F)c(C(O)c2c[nH]c3ncc(-c4cccnc4)cc23)c1F (stereo not shown) [Compound P-0009, 2,4-difluoro-3-[hydroxy-(5-pyridin-3-yl-1H-pyrrolo[2,3-b]pyridin-3-yl)-methyl]-phenol]
≤ 10 µM: all assays above

Cc1ccc(F)cc1C(=O)c1c[nH]c2ncc(-c3ccc(C(N)=O)cc3)cc12 [Compound P-0050]
not listed: Fms
≤ 10 µM: all other assays above
